# Assay results from ChEMBL document CHEMBL1201862, “PubChem BioAssay data set” (2004).
# The source made the active and inactive calls.
# Tests used:
# [1] = molecular target: T1, Long-chain-fatty-acid--AMP ligase FadD28 (Mycobacterium tuberculosis, UniProt P9WQ59); test: Fluorescence polarization aasay to screen for inhibitors that compete for the binding of FadD28 to a bisubstrate Measured in Biochemical System Using Plate Reader - 2147-01_Inhibitor_Dose_CherryPick_Activity.; format: functional, Mycobacterium tuberculosis H37Rv
# T1 sequence (P9WQ59 whole entry): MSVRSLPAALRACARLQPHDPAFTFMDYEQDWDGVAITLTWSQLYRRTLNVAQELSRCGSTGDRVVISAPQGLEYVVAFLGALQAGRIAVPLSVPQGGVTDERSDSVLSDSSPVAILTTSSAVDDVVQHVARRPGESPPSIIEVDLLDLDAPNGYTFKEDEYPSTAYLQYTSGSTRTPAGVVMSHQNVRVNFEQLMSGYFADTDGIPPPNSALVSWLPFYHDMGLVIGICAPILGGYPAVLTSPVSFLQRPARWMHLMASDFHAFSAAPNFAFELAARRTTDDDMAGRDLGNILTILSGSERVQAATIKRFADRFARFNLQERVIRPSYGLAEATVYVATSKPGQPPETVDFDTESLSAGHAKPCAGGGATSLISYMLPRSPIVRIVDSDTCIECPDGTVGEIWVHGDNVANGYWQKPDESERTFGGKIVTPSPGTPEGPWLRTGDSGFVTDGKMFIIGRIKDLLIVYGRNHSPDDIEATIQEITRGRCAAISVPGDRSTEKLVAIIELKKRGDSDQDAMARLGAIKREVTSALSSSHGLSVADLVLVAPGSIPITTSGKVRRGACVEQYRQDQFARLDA
# [2] = molecular target: T2, Mannose-6-phosphate isomerase (Homo sapiens, UniProt P34949); test: human PMI inhibitors, high substrate, primary screen, biochemical, fluorescence intensity, high mannose 6-phosphate (AID 1220)
# T2 sequence (P34949 whole entry): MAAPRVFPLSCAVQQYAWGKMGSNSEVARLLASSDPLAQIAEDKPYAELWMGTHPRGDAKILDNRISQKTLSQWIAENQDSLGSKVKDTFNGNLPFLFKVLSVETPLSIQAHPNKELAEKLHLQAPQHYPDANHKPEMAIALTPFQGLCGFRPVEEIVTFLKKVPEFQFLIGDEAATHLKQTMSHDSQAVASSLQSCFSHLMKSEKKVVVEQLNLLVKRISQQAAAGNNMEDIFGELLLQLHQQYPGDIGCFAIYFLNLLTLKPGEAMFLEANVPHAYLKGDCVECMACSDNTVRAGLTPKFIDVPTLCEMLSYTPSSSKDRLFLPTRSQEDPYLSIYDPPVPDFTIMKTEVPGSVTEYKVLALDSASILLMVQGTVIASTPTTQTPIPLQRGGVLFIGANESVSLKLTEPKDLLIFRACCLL
# [3] = molecular target: T3, Fructose-bisphosphate aldolase (Mycobacterium tuberculosis, UniProt P9WQA3); test: Fluorescence-based biochemical high throughput dose response assay for inhibitors of the fructose-bisphosphate aldolase (FBA) of M. tuberculosis.; format: functional
# T3 sequence (P9WQA3 whole entry): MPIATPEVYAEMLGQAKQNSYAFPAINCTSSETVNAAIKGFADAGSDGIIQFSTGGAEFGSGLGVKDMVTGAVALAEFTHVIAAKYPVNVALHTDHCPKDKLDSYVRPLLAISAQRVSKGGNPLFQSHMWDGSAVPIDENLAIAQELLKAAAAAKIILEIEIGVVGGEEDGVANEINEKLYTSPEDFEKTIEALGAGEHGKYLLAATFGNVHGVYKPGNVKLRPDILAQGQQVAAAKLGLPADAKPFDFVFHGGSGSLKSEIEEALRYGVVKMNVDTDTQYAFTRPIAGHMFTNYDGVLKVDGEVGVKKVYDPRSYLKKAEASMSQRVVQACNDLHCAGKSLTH
# [4] = molecular target: T4, Sentrin-specific protease 7 (Homo sapiens, UniProt Q9BQF6); format: functional;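 also: Luminescence-based dose-response confirmation of ultra-high-throughput screening hits, measuring inhibition of SENP7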
# T4 sequence (Q9BQF6 whole entry): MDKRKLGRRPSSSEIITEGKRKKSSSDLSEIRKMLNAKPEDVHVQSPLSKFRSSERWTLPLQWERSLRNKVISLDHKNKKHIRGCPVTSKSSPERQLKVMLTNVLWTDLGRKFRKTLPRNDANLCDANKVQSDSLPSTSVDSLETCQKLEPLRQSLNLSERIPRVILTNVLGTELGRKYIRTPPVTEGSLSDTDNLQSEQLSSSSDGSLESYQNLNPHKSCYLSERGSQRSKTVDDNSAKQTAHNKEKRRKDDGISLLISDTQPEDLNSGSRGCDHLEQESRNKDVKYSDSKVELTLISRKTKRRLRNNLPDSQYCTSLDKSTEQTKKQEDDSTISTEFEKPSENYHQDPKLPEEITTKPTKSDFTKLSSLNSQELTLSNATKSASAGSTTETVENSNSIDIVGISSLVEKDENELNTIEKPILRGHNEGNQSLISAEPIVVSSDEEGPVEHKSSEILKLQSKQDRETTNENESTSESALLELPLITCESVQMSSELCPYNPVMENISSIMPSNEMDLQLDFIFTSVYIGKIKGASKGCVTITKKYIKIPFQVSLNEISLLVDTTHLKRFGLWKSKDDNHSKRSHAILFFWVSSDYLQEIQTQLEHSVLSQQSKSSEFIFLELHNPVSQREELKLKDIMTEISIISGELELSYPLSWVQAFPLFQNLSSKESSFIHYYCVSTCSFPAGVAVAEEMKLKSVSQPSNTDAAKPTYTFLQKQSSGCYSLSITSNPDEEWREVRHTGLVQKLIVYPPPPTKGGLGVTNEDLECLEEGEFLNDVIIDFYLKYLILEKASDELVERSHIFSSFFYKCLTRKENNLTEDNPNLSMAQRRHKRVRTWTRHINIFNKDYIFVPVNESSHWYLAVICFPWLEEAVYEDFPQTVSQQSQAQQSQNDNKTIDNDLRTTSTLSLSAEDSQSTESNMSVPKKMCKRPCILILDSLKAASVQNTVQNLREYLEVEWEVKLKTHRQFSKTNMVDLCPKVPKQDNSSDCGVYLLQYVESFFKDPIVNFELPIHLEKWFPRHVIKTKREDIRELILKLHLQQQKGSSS
# [5] = molecular target: T5, Sentrin-specific protease 6 (Homo sapiens, UniProt Q9GZR1); format: functional;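 also: Luminescence-based dose-response confirmatory assay of SENP6 inhibition, following up an ultra-high-throughput screen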
# T5 sequence (Q9GZR1 whole entry): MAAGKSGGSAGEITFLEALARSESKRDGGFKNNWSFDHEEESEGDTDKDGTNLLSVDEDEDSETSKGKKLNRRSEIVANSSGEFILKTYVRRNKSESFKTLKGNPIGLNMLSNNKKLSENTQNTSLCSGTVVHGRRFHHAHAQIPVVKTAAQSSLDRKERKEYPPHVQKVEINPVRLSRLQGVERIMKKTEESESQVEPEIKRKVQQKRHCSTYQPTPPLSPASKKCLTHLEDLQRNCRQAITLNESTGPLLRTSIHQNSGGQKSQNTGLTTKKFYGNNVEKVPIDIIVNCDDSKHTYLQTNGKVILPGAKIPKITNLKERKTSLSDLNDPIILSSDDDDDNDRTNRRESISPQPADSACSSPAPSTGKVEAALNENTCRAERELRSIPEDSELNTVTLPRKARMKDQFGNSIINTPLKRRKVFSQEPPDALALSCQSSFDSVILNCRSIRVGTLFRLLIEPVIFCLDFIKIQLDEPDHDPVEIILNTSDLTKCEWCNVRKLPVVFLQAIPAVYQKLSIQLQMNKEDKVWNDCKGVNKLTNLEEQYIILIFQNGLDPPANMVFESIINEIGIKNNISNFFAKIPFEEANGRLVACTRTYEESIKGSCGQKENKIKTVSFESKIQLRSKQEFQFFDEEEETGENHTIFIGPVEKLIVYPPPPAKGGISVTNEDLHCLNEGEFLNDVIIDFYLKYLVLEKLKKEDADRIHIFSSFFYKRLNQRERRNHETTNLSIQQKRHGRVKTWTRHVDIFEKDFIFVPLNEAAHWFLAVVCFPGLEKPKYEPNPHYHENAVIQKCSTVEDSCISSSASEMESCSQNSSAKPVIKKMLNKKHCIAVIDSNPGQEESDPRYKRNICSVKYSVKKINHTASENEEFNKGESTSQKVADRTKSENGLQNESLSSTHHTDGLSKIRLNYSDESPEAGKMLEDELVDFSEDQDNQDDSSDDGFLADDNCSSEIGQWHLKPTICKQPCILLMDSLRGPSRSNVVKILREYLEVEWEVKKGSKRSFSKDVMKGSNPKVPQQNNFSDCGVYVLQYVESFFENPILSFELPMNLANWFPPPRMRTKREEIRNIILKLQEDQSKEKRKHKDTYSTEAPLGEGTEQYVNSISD
# [6] = molecular target: T6, Sentrin-specific protease 8 (Homo sapiens, UniProt Q96LD8); format: functional;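 also: luminescence read-out of SENP8 inhibition, dose-response confirmation following an ultra-high-throughput screen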
# T6 sequence (Q96LD8 whole entry): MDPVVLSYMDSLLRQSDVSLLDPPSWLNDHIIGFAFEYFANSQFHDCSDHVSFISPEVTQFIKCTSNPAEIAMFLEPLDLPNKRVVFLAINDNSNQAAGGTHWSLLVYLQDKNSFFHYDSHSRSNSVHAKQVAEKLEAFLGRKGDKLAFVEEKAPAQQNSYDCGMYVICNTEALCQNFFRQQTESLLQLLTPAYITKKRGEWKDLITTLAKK
# Caspase-3 = molecular target: T7, Caspase-3 (Homo sapiens, UniProt P42574); format: functional;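 also: Dose-response selectivity test against caspase-3 for candidate inhibitors of sentrin-specific proteases (SENPs)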
# T7 sequence (P42574 whole entry): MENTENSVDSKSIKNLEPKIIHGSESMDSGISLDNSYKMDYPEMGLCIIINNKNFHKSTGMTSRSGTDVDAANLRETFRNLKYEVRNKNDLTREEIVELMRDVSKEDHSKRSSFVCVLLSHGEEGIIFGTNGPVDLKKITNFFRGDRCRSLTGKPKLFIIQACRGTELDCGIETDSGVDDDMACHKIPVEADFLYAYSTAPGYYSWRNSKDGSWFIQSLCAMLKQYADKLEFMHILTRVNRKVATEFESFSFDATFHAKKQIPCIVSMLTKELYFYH
# Cryptococcus neoformans = test: PubChem AID 686997; format: functional, organism-based; conditions: Cryptococcus neoformans
# [7] = ADAM10 inhibitors, peptide cleavage, dose response, biochemical, QFRET (AID 743254);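 also: ADAM10 enzyme with the DM2 quenched FRET peptide as substrate; EDANS fluorescence gain as the protease cuts the substrate; inhibitor potency against ADAM10 proteolytic activity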
# Protein skinhead-1 = molecular target: T8, Protein skinhead-1 (Caenorhabditis elegans, UniProt P34707); format: functional
# T8 sequence (P34707 whole entry): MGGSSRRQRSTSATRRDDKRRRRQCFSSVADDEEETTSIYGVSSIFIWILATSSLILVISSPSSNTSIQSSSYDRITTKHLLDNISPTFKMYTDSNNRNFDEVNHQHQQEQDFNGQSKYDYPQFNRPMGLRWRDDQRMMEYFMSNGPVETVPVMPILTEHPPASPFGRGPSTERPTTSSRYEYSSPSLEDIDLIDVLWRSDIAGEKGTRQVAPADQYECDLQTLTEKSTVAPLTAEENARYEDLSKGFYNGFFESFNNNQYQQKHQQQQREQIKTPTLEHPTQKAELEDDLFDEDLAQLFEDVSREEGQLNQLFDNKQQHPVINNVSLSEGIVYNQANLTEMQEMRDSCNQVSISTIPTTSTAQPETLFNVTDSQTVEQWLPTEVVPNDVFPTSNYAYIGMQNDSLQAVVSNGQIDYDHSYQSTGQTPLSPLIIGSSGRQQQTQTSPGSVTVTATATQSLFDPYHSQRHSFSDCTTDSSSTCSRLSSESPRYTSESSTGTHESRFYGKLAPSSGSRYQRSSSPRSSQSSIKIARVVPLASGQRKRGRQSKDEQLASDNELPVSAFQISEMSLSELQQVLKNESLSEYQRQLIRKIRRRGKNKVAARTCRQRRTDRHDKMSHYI
# [8] = molecular target: T9, Corticotropin-releasing factor receptor 2/Corticotropin-releasing factor-binding protein (Homo sapiens, UniProt P24387+Q13324); test: activators of CRF receptor 2 with binding protein – uHTS hits, confirmation (AID 602473); format: functional; conditions: read-out: EC50_Mean
# T9 sequence (Q13324 whole entry): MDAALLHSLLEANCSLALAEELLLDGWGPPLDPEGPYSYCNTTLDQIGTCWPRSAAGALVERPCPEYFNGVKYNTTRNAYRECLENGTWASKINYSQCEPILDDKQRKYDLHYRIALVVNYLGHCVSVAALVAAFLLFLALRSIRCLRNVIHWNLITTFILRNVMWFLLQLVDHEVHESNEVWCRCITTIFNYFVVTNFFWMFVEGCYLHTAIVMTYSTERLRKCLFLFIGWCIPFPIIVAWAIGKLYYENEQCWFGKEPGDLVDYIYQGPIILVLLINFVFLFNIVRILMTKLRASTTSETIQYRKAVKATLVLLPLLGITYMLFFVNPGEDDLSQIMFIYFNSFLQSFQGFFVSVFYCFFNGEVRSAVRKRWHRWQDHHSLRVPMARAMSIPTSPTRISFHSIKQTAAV
# T9 sequence (P24387 whole entry): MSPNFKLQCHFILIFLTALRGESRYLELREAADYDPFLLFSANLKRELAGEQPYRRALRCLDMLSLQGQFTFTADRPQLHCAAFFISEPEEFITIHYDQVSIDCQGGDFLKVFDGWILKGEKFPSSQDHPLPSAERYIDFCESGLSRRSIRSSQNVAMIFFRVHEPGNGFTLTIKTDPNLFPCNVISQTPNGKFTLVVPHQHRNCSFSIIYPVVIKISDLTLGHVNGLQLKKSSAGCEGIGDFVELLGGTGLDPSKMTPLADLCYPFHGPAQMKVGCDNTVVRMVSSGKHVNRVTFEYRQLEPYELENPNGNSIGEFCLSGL
# [9] = molecular target: T9, Corticotropin-releasing factor receptor 2/Corticotropin-releasing factor-binding protein; test: Dose Response confirmation of uHTS hits for small molecule antagonists of the CRF-binding protein and CRF-R2 receptor complex.; format: functional; conditions: read-out: IC50_Mean
# [10] = CRF-BP/CRF-R2 complex antagonists, dose response, cell-based, uHTS hits, 384-well (AID 651639); format: functional, Homo sapiens; conditions: read-out: IC50_Mean
smiles,measurement,setting,value
Oc1ccccc1Oc1c(F)c(F)nc(N2CCCC2)c1F,AC50,[1],42.5 µM (active)
same,IC50,[2],> 50 µM (not active)
CC(=O)N1C(=O)/C(=C2\SC(=S)N(NC(=O)c3ccc(O)cc3)C2=O)c2ccccc21,IC50,[3],4.74 µM (active)
same,IC50,[4],35.3 µM (active)
same,IC50,[5],3.1 µM (active)
same,IC50,[6],10.3 µM (active)
same,IC50,Caspase-3,12.9 µM (active)
Cc1cc(C)c2nc(N3CCN(C(=O)c4cccs4)CC3)sc2c1,AC50,Cryptococcus neoformans,> 70 µM (inactive)
CC(C)(C)OC(=O)NCc1ccc(CNC(=O)c2[nH]cnc2C(=O)N[C@@H](Cc2ccccc2)C(=O)OC(C)(C)C)cc1,IC50,[7],9.77 µM (active)
Nc1nnc(/C=C/c2ccccc2Cl)s1,IC50,[3],1.59 µM (active)
CC(C)CC(C(=O)Oc1ccc2c3c(c(=O)oc2c1)CCC3)N1C(=O)c2ccccc2C1=O (stereo unspecified),IC50,[3],1.27 µM (active)
same,IC50,Protein skinhead-1,> 100 µM (inactive)
CN(Cc1ccc([N+](=O)[O-])cc1)c1ccccc1,AC50,[1],> 100 µM (inactive)
same,EC50,[8],> 53 µM (inactive)
same,IC50,[9],2.92 µM (active)
same,IC50,[10],7.06 µM (active)
